What all share (experiment): NCI 60 single concentration growth inhibition
Holding throughout (format): cell-based, human

Test [1] has as its system UACC-62. Conditions: Homo sapiens, UACC-62, Melanoma, read-out: GI%. The gist of the method:
(§1)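 Suspension cells such as leukaemia lines are fixed with 80% TCA added to settled cells, to 16% final, while other lines are fixed at 10% TCA. Both are then SRB-stained after 48 h of drug exposure at 37 °C.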

Test [2] concerns BT-549. Conditions: Homo sapiens, BT-549, Breast cancer, read-out: GI%. The procedure, abridged:
as §1

Test [3] deals with SK-MEL-5. Conditions: Homo sapiens, SK-MEL-5, Melanoma, read-out: GI%. The procedure, abridged: as §1
Test [4] concerns PC-3. Conditions: Homo sapiens, PC-3, Prostate cancer, read-out: GI%. The procedure, abridged:
as §1

For test [5], the system named is HS 578T. The settings on record: Homo sapiens, Breast cancer, read-out: GI%. The procedure, abridged: as §1
Test [6] concerns UACC-257. Conditions: Homo sapiens, UACC-257, Melanoma, read-out: GI%. The gist of the method:
as §1

In test [7] the test system is MCF7. Conditions: Homo sapiens, MCF7, Breast cancer, read-out: GI%. The gist of the method: as §1
Test [8] deals with 786-0. The settings on record: Homo sapiens, 786-0, Renal cancer, read-out: GI%. The gist of the method: as §1
For test [9], the system named is ACHN. The settings on record: Homo sapiens, Renal cancer, read-out: GI%. The gist of the method: as §1
The subject of test [10] is SR. Conditions: Homo sapiens, Leukemia, read-out: GI%. The gist of the method: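 Read-out is SRB absorbance at 515 nm after TCA fixation (10% for adherent lines, 16% for suspension lines). Drugs were applied for 48 h following a 24 h plating period. Growth percentages came from time-zero, control and treated absorbances.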
Test [11] concerns A549/ATCC. The settings on record: Homo sapiens, Non-small cell lung cancer, read-out: GI%. The gist of the method: as §1
The test system of test [12] is RXF 393. Conditions: Homo sapiens, RXF 393, Renal cancer, read-out: GI%. The gist of the method:
as §1

Test [13] relates to SN12C. Conditions: Homo sapiens, Renal cancer, read-out: GI%. The procedure, abridged: as §1
The subject of test [14] is HOP-62. The settings on record: Homo sapiens, HOP-62, Non-small cell lung cancer, read-out: GI%. The procedure, abridged:
as §1

Test [15] relates to EKVX. Conditions: Homo sapiens, Non-small cell lung cancer, read-out: GI%. The procedure, abridged:
as §1

For test [16], the system named is SK-MEL-2. Conditions: Homo sapiens, SK-MEL-2, Melanoma, read-out: GI%. The gist of the method:
as §1

Test [17] concerns SF-268. The settings on record: Homo sapiens, SF-268, CNS cancer, read-out: GI%. The gist of the method:
as §1

Test [18] deals with MDA-MB-231/ATCC. The settings on record: Homo sapiens, Breast cancer, read-out: GI%. The procedure, abridged: as §1
In test [19] the test system is SF-295. Conditions: Homo sapiens, SF-295, CNS cancer, read-out: GI%. The gist of the method:
as §1

Test [20] concerns T-47D. The settings on record: Homo sapiens, T47D, Breast cancer, read-out: GI%. The procedure, abridged: as §1
The subject of test [21] is OVCAR-5. Conditions: Homo sapiens, OVCAR-5, Ovarian cancer, read-out: GI%. The procedure, abridged:
as §1

Test [22] deals with M14. Conditions: Homo sapiens, M14, Melanoma, read-out: GI%. The gist of the method:
as §1

The subject of test [23] is OVCAR-8. The settings on record: Homo sapiens, OVCAR-8, Ovarian cancer, read-out: GI%. The procedure, abridged:
as §1

As to `COc1ccc(C=NNC(=O)Cn2c(-c3ccc(OC)cc3)nc3cc(Cl)c(Cl)cc32)cc1` [Compound 10d, 2-(5,6-Dichloro-2-(4-methoxyphenyl)-1H-benzo[d]imidazol-1-yl)-N'-(4-methoxybenzylidene)acetohydrazide], the inhibition at 10 µM in test [1] was determined as 34.1%; in [2], 50.3%; in [3], 78.9%; in test [4], 68.5%; in [5] it was 34.6%; in test [6], 60.4%. The inhibition at 10 µM in test [7] worked out at 81.5%; in [8], 29.1%; in [9] it was 40.2%; in test [10] it was 35.1%; in test [11] it was 59.4%; in test [12] it was 38.7%. For the same compound, the inhibition at 10 µM in test [13] was 27.8%; in test [14], 23.6%; in test [15], 76.8%; in [16] it was 30.9%; in test [17] it was 48.6%; in test [18], 27.4%. Further, the inhibition at 10 µM worked out at 66.8% in test [19]; 67.2% in test [20]; 21.5% in test [21]; 38.2% in test [22]; 22.4% in [23].
For the compound `COc1ccc(-c2nc3cc(Cl)c(Cl)cc3n2CC(=O)NN=Cc2cccc(OCC(=O)O)c2)cc1` [Compound 10e, 2-(3-((2-(2-(5,6-Dichloro-2-(4-methoxyphenyl)-1H-benzo[d]imidazol-1-yl)acetyl)hydrazono)methyl)phenoxy)acetic acid], the inhibition at 10 µM in [1] is below 5%; in test [2], below 5%; in [3] it was below 5%; in test [4] it was below 5%; in test [5] it was 7.11%; in test [6] it was below 5%. For the same compound, the inhibition at 10 µM in test [7] is 13.6%; in test [8], below 5%; in test [9], below 5%; in test [10], below 5%; in [11], below 5%; in test [12] it was below 5%. Besides, the inhibition at 10 µM in [13], in test [14], in [15], in [16], in [17] and in test [18] was below 5% each time. For the same compound, the inhibition at 10 µM in [19] was below 5%; in [20] it was below 5%; in [21], below 5%; in test [22] it was 6.12%; in [23] it was below 5%.
With `COc1ccc(-c2nc3cc(Cl)c(Cl)cc3n2CC(=O)NN=Cc2ccc(OCC(=O)O)cc2)cc1` [Compound 10f, 2-(4-((2-(2-(5,6-Dichloro-2-(4-methoxyphenyl)-1H-benzo[d]imidazol-1-yl)acetyl)hydrazono)methyl)phenoxy)acetic acid], the inhibition at 10 µM in [1] is below 5%; in test [2], below 5%; in test [3], below 5%; in test [4], 8.65%; in test [5] it was below 5%; in test [6], below 5%. The inhibition at 10 µM is 18.9% in test [7]; below 5% in test [8]; below 5% in test [9]; below 5% in test [10]; below 5% in test [11]; below 5% in test [12]. Moreover, the inhibition at 10 µM in test [13] is below 5%; in test [14] it was below 5%; in test [15] it was 5.96%; in [16], below 5%; in [17], below 5%; in test [18], below 5%. Moreover, the inhibition at 10 µM in test [19], in [20], in [21], in [22] and in test [23] was below 5% each time.
Regarding `COC(=O)COc1ccc(C=NNC(=O)Cn2c(-c3ccc(OC)cc3)nc3cc(Cl)c(Cl)cc32)cc1` [Compound 10h, Methyl-2-(4-((2-(2-(5,6-dichloro-2-(4-methoxyphenyl)-1H-benzo[d]imidazol-1-yl)acetyl)hydrazono)methyl)phenoxy)acetate], the inhibition at 10 µM in test [1] was below 5%; in [2], 6.87%; in test [3] it was below 5%; in [4] it was 74.4%; in [5], 72.2%; in [6], below 5%. Moreover, the inhibition at 10 µM in [7] is 67.5%; in test [8], 112%; in test [9], 106%; in test [10], 81.1%; in test [11], below 5%; in [12], 85.7%. The inhibition at 10 µM in [13] was 66.4%; in [14], below 5%; in test [15] it was below 5%; in test [16] it was 26.4%; in test [17], below 5%; in test [18] it was 94.5%. In addition, the inhibition at 10 µM in [19] is below 5%; in [20] it was 107%; in test [21] it was below 5%; in [22] it was 10.8%; in [23] it was 148%.
As for `COc1ccc(-c2nc3cc(Cl)c(Cl)cc3n2CC(=O)NN=Cc2ccc(O)c(OC)c2)cc1` [Compound 10l, 2-(5,6-Dichloro-2-(4-methoxyphenyl)-1H-benzo[d]imidazol-1-yl)-N'-(4-hydroxy-3-methoxybenzylidene)acetohydrazide], the inhibition at 10 µM was 33.6% in test [1]; 50.2% in test [2]; 57.9% in test [3]; 54.2% in [4]; 32.7% in [5]; 36.3% in test [6]. The inhibition at 10 µM was 65.9% in test [7]; 30.7% in test [8]; 32.4% in test [9]; 49.1% in test [10]; 35.4% in [11]; 32.2% in test [12]. In addition, the inhibition at 10 µM in test [13] was found to be 19.9%; in test [14] it was 12.4%; in test [15], 51.9%; in test [16], 18.6%; in [17] it was 53.7%; in test [18], 17.2%. Moreover, the inhibition at 10 µM in test [19] is 38.1%; in test [20], 51.3%; in test [21], below 5%; in [22], 33%; in [23] it was 27.1%.
Consider `COc1ccc(-c2nc3cc(Cl)c(Cl)cc3n2CC(=O)NN=Cc2cccc(O)c2)cc1` [Compound 10a, 2-(5,6-Dichloro-2-(4-methoxyphenyl)-1H-benzo[d]imidazol-1-yl)-N'-(3-hydroxybenzylidene)acetohydrazide], for which the inhibition at 10 µM was 40% in test [1]; 47.8% in test [2]; 79.7% in test [3]; 57.8% in test [4]; 36.9% in test [5]; 57.7% in test [6]. For the same compound, the inhibition at 10 µM was 80.6% in test [7]; 28.6% in test [8]; 40% in test [9]; 42% in test [10]; 62.5% in [11]; 44.4% in [12]. In addition, the inhibition at 10 µM in test [13] was 31.3%; in test [14] it was 24.1%; in [15], 76.6%; in test [16], 33.6%; in test [17] it was 51.5%; in test [18], 20%. For the same compound, the inhibition at 10 µM in [19] amounted to 67.8%; in test [20] it was 69.7%; in [21] it was 20.5%; in test [22] it was 41.1%; in test [23] it was 29.5%.

(Values after publication PMC11844072, “Novel 5,6-dichlorobenzimidazole derivatives as dual BRAFWT and BRAFV600E inhibitors: design, synthesis, anti-cancer activity and molecular dynamics simulations” (BMC Chemistry, 2025).)
